Publication PMC3909264, “A Novel Acylaminoimidazole Derivative, WN1316, Alleviates Disease Progression via Suppression of Glial Inflammation in ALS Mouse Model” (PLoS ONE, 2014)
Counter-ions that a name gives are not always drawn.

System: ALS(SOD1^H46R) mice
Test: Histopathology, immunohistochemistry and Western blot of spinal cord, ventral root and muscle of treated ALS(SOD1^H46R) mice
Assay type: in vivo, mouse
Procedure: At 21–22 weeks of age (late-symptomatic stage), mice were anesthetized with 2% isoflurane by inhalation. Anesthetized mice were transcardially perfused with physiological saline containing 10% heparin, followed by 4% paraformaldehyde (PFA) in 0.1 M phosphate buffer (PB) (pH 7.2). Spinal cord was removed, and lumbar segment was dissected.
For the preparation of paraffin-embedding tissue, lumbar segment was post-fixed with the same fixative for 48 h at 4°C and embedded in paraffin. Serial transverse sections (6 µm thickness) of lumbar segment (L4–L5) were sliced and stained with hematoxylin and eosin (H&E) for histopathological evaluation.
For the preparation of frozen-embedding tissue, lumbar segment was post-fixed with 4% PFA in 0.1 M PB (pH 7.2) for 24 h at 4°C, and then processed in 30% sucrose in 0.1 M PB (pH 7.2) containing 0.1% NaN3 for 96 h at 4°C (for cryoprotection) followed by frozen-embedding. Ten µm frozen sections were cut on a cryostat and used for fluorescent immunohistochemistry.
Immunohistochemical analyses with anti-ChAT, anti-Iba-1, anti-GFAP, anti-MAP2, anti-IL-1β and anti-8-OHdG antibodies were performed. For immunostaining with anti-ChAT antibody, the deparaffinized sections from late-symptomatic mice were pre-treated by autoclaving at 121°C for 5 min in HISTOFINE antigen retrieval solution (pH 9.0) (Nichirei). For immunostaining with anti-Iba-1 antibody, the deparaffinized sections from late-symptomatic mice were pre-treated by autoclaving at 121°C for 10 min in 10 mM citrate buffer (pH 6.0). For immunostaining with anti-GFAP antibody, the deparaffinized sections were used without any pretreatment. The sections were incubated with 0.3% H2O2 in methanol for 30 min and then with phosphate-buffered saline (PBS) (pH 7.2) containing 0.3% Triton X-100 for 30 min. After the treatment with PBS containing 5% normal goat serum (NGS) (Vector Laboratories)/0.05% Triton X-100 or 5% normal rabbit serum (NRS) (Vector Laboratories)/0.05% Triton X-100 for 1 h at room temperature, the sections were incubated with either anti-GFAP or anti-Iba-1 antibody in PBS containing 1.5% NGS/0.05% Triton X-100 or with anti-ChAT antibody in PBS containing 1.5% NRS/0.05% Triton X-100 overnight at 4°C. The sections were then incubated with HISTOFINE simple stain mouse MAX-PO (R) (Nichirei) or with HISTOFINE simple stain mouse MAX-PO (G) (Nichirei) for 1 hr at room temperature. The sections were visualized using 0.05% 3,3-diaminobenzidine tetrahydrochloride (DAB) (Wako) and 0.015% H2O2 in 50 mM Tris-HCl (pH 7.5) buffer, and the DAB reaction products were observed under a light microscope (BIOREVO BZ-9000, KEYENCE).
For double-immunostaining using frozen section, sections from late-symptomatic mice were washed with PBS, and treated with PBS containing 3% normal horse serum (NHS) (Vector Laboratories)/0.3% Triton X-100 for 1 h at room temperature. The sections were incubated with anti-IL-1β antibody in PBS containing 0.01% Triton X-100 for 48 h at 4°C, and then were incubated with CF^TM488A donkey anti-goat IgG (H+L) (1∶400, Biotium) in PBS containing 0.01% Triton X-100 for 1 h at room temperature. Next, the sections were incubated with anti-GFAP, anti-Iba-1 or anti-MAP2 antibody in PBS containing 0.01% Triton X-100 overnight at 4°C, and then were incubated with CF^TM555 goat anti-rabbit IgG (H+L) (1∶400, Biotium) in PBS containing 0.01% Triton X-100 for 1 h at room temperature. Fluorescent signals were observed under a light microscope (BIOREVO BZ-9000, KEYENCE).
For double-immunostaining of deparaffinized tissue, sections from late-symptomatic mice were pre-treated by autoclaving at 121°C for 10 min in 10 mM citrate buffer (pH 6.0). After the treatment with PBS containing 5%NGS/0.05% Triton X-100, the sections were incubated with anti-8-OHdG and anti-GFAP, anti-Iba-1 or anti-MAP2 antibodies in PBS containing 1.5% NGS/0.05% Triton X-100 overnight at 4°C. […]

Compound: Cc1cc(C)c(N(C)CC(=O)Nc2nc(-c3ccccn3)c[nH]2)c(C)c1 [WN1316, 2-[mesityl(methyl)amino]-N-[4-(pyridin-2-yl)-1H-imidazol-2-yl] acetamide trihydrochloride]
- DNA oxidation (8-OHdG) in lumbar spinal cord (10 µg/kg, 21–22 weeks of age): remarkable reduction
- IL-1β immunoreactivity in astrocytes (10 µg/kg, 21–22 weeks of age): diminished dramatically
- iNOS generation in lumbar spinal cord (Western blot) (10 µg/kg, 21–22 weeks of age): decreased
- large myelinated axons in the L5 ventral root (10 µg/kg, 21–22 weeks of age): preservation of large myelinated axons
- GFAP and Iba-1 immunoreactivity in lumbar spinal cord anterior horn (10 µg/kg, 21–22 weeks of age, vs vehicle): significant reduction
- protein levels of mutant SOD1 in NP-40-soluble and NP-40-insoluble/SDS-soluble fractions (10 µg/kg, vs vehicle, 21–22 weeks of age): no significant differences
- loss of ChAT-positive motor neurons compared with non-Tg littermates (10 µg/kg/day, lumbar L4–L5, 21–22 weeks of age (vehicle 35.5%)): 15.2%
- skeletal muscle integrity (quadriceps femoris) (21–22 weeks of age): preserved the skeletal muscle integrity
